Data on twelve compounds can be found in patent publication US7659279B2, “Quinazoline derivatives and their use in the treatment of cancer” (AstraZeneca AB, priority 2003, dated 2010).

In one assay the target is T1, EGFR tyrosine kinase (Homo sapiens, UniProt P00533).
T1 construct: Recombinant intracellular fragments of EGFR, erbB2 and erbB4; made in house; host or cells: baculovirus/Sf21 insect cells (cleared lysate used)
Kind of assay: Test (a) protein tyrosine kinase phosphorylation assay, EGFR. The class given is biochemical. The conditions noted are these: recombinant intracellular fragment; ATP at Km concentration; read-out: IC50 (nM) Test (a): Inhibition of EGFR tyrosine kinase protein phosphorylation. As to the method: (§1) a) Protein Tyrosine Kinase Phosphorylation Assays
This test measures the ability of a test compound to inhibit the phosphorylation of a tyrosine containing polypeptide substrate by EGFR tyrosine kinase enzyme.
(§2) Recombinant intracellular fragments of EGFR, erbB2 and erbB4 (accession numbers X00588, X03363 and L07868 respectively) were cloned and expressed in the baculovirus/Sf21 system. Lysates were prepared from these cells by treatment with ice-cold lysis buffer (20 mM N-2-hydroxyethylpiperizine-N′-2-ethanesulfonic acid (HEPES) pH7.5, 150 mM NaCl, 10% glycerol, 1% Triton X-100, 1.5 mM MgCl2, 1 mM ethylene glycol-bis(β-aminoethyl ether) N′,N′,N′,N′-tetraacetic acid (EGTA), plus protease inhibitors and then cleared by centrifugation.
(§3) Constitutive kinase activity of the recombinant protein was determined by its ability to phosphorylate a synthetic peptide (made up of a random co-polymer of Glutamic Acid, Alanine and Tyrosine in the ratio of 6:3:1). Specifically, Maxisorb™ 96-well immunoplates were coated with synthetic peptide ([…] of peptide in a 100 μl phosphate buffered saline (PBS) solution and incubated at 4° C. overnight). Plates were washed in PBS-T (phosphate buffered saline with 0.5% Tween 20) then in 50 mM HEPES pH 7.4 at room temperature to remove any excess unbound synthetic peptide. EGFR, ErbB2 or ErbB4 tyrosine kinase activity was assessed by incubation in peptide coated plates for 20 minutes at 22° C. in 100 mM HEPES pH 7.4, adenosine trisphosphate (ATP) at Km concentration for the respective enzyme, 10 mM MnCl2, 0.1 mM Na3VO4, 0.2 mM DL-dithiothreitol (DTT), 0.1% Triton X-100 with test compound in DMSO (final concentration of 2.5%). Reactions were terminated by the removal of the liquid components of the assay followed by washing of the plates with PBS-T.
(§4) The immobilised phospho-peptide product of the reaction was detected by immunological methods. Firstly, plates were incubated for 90 minutes at room temperature with anti-phosphotyrosine primary antibodies that were raised in the mouse (4G10 from Upstate Biotechnology). Following extensive washing, plates were treated with Horseradish Peroxidase ([…]) conjugated sheep anti-mouse secondary antibody (NXA931 from Amersham) for 60 minutes at room temperature. After further washing, HRP activity in each well of the plate was measured […] using 22′-Azino-di-[3-ethylbenzthiazoline sulfonate (6)] diammonium salt crystals (ABTS™ from Roche) as a substrate.
(§5) Quantification of colour development and thus enzyme activity was achieved by the measurement of absorbance at 405 nm on a Molecular Devices ThermoMax microplate reader. Kinase inhibition for a given compound was expressed as an IC50 value. This was determined by calculation of the concentration of compound that was required to give 50% inhibition of phosphorylation in this assay. The range of phosphorylation was calculated from the positive (vehicle plus ATP) and negative (vehicle minus ATP) control values.

Another assay deals with T2, erbB2 tyrosine kinase (Homo sapiens, UniProt P04626).
T2 construct: Recombinant intracellular fragments of EGFR, erbB2 and erbB4; made in house; host or cells: baculovirus/Sf21 insect cells (cleared lysate used)
Kind of assay: Test (a) protein tyrosine kinase phosphorylation assay, erbB2. The format is biochemical. Particulars: recombinant intracellular fragment; ATP at Km concentration; read-out: IC50 (nM) Test (a): Inhibition of erbB2 tyrosine kinase protein phosphorylation. As to the method: as §1, §2, §3, §4, §5

Assay [1] concerns KB cells (human naso-pharangeal carcinoma). Kind of assay: Test (b) KB cell proliferation assay. The class given is cell-based. Particulars: 96 h, EGF 1 ng/ml, 4 days, MTT, read-out: IC50 (nM) Test (b): EGFR driven KB cell proliferation assay. As for the experimental part:
b) KB Cell Proliferation Assay
This assay measures the ability of a test compound to inhibit the EGF driven proliferation of KB cells (human naso-pharangeal carcinoma obtained from the American Type Culture Collection (ATCC)).
KB cells were cultured in Dulbecco's modified Eagle's medium (DMEM) containing 10% foetal calf serum, 2 mM glutamine and non-essential amino acids at 37° C. in a 7.5% CO2 air incubator. Cells were harvested from the stock flasks using Trypsin/ethylaminediaminetetraacetic acid (EDTA). Cell density was measured using a haemocytometer and viability was calculated using trypan blue solution before being seeded at a density of 1.25×10^3 cells per well of a 96 well plate in DMEM containing 2.5% charcoal stripped serum, 2 mM glutamine and non-essential amino acids at 37° C. in 7.5% CO2 and allowed to settle for 4 hours.
Following adhesion to the plate, the cells are treated with or without EGF (final concentration of 1 ng/ml) and with or without compound at a range of concentrations in dimethylsulfoxide (DMSO) (1% final) in a final volume of 200 μl before incubation for 4 days at 37° C. in 7.5% CO2. Following the incubation period, cell numbers were determined by addition of 50 μl of 3-(4,5-Dimethylthiazol-2-yl)-2,5-diphenyltetrazolium bromide (MTT) (stock 5 mg/ml) and incubated at 37° C. in a 7.5% CO2 air incubator for 2 hours. MTT solution was then removed from the cells by aspiration, which were then allowed to air dry and were dissolved upon the addition of 100 μl of DMSO.
Absorbance of this solubilised cells was read at 540 nm to quantify cell biomass. Inhibition of proliferation was expressed as an IC50 value. This was determined by calculation of the concentration of compound that was required to give 50% inhibition of proliferation. The range of proliferation was calculated from the positive (vehicle plus EGF) and negative (vehicle minus EGF) control values.

T2 sequence (P04626 676-1255 limits assumed): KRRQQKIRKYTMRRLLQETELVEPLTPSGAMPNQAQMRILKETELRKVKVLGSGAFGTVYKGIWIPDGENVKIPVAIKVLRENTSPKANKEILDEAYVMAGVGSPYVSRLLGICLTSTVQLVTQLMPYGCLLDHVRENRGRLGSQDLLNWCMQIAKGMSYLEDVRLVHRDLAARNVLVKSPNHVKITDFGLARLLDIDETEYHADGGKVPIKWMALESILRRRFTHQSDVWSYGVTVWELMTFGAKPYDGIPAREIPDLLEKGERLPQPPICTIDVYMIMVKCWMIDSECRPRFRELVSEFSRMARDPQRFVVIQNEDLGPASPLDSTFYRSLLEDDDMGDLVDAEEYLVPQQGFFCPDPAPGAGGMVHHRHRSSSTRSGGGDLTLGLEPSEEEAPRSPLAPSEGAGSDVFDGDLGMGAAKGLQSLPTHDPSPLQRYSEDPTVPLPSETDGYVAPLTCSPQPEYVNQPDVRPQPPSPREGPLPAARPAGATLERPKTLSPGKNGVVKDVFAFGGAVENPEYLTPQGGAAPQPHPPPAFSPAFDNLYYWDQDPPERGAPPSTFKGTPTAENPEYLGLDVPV
T1 sequence (P00533 669-1210 limits assumed): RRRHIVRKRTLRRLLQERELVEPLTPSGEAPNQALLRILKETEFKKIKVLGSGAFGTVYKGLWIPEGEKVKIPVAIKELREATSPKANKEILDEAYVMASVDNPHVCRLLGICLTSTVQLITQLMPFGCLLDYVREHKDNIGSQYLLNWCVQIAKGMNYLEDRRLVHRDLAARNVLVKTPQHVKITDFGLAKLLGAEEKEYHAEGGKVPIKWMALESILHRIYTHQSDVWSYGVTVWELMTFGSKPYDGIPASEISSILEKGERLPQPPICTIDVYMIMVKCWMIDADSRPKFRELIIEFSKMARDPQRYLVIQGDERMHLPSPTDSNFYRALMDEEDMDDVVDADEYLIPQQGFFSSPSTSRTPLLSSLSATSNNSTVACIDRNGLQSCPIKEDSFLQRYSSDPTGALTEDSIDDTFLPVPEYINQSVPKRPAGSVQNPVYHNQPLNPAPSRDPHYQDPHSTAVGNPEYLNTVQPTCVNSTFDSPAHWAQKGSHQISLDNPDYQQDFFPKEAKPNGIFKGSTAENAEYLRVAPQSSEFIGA

Consider `COc1cc(OC[C@H]2CCCN2C(C)=O)c2c(Nc3ccc(F)c(Cl)c3)ncnc2c1` [Example 13, 5-{[(2R)-1-Acetylpyrrolidin-2-yl]methoxy}-N-(3-chloro-4-fluorophenyl)-7-methoxyquinazolin-4-amine], for which the IC50 on EGFR tyrosine kinase came to 1 nM; on erbB2 tyrosine kinase, 358 nM; in assay [1] it was 28 nM.

On to `COc1cc(OC[C@H]2C[C@@H](O)CN2C(=O)CO)c2c(Nc3ccc(F)c(Cl)c3)ncnc2c1` [Example 32, (3R,5R)-5-[({4-[3-Chloro-4-fluoroanilino]-7-methoxyquinazolin-5-yl}oxy)methyl]-1-glycoloylpyrrolidin-3-ol], for which the IC50 on EGFR tyrosine kinase amounted to 18 nM; at erbB2 tyrosine kinase it was 215 nM; in assay [1], 118 nM.

In the case of `COc1cc(OC[C@H]2CCCN2C(=O)CO)c2c(Nc3ccc(F)c(Cl)c3)ncnc2c1` [Example 3, 2-{(2R)-2-[({4-[3-Chloro-4-fluoroanilino]-7-methoxyquinazolin-5-yl}oxy)methyl]pyrrolidin-1-yl}-2-oxoethanol], the IC50 at EGFR tyrosine kinase worked out at 9 nM; at erbB2 tyrosine kinase, 275 nM; in assay [1], 91 nM.

Consider `COc1cc(OC[C@H]2CCCN2C(=O)CN(C)C)c2c(Nc3ccc(F)c(Cl)c3)ncnc2c1` [Example 4], for which the figures for the IC50 (at EGFR tyrosine kinase; at erbB2 tyrosine kinase; in assay [1]) were 39 nM, 252 nM and 138 nM, respectively.

As for `O=C(CO)N1CCC[C@@H]1COc1cc(OCCO)cc2ncnc(Nc3ccc(F)c(Cl)c3)c12` [Example 16, 2-[(2R)-2-({[4-[3-Chloro-4-fluoroanilino]-7-(2-hydroxyethoxy)quinazolin-5-yl]oxy}methyl)pyrrolidin-1-yl]-2-oxoethanol], the results for the IC50 (on EGFR tyrosine kinase; on erbB2 tyrosine kinase; in assay [1]) were 1 nM, 52 nM and 128 nM, respectively.

In the case of `COc1cc(OC[C@H]2C[C@H](O)CN2C(C)=O)c2c(Nc3ccc(F)c(Cl)c3)ncnc2c1` [Example 22, (3S,5R)-1-Acetyl-5-[({4-[3-chloro-4-fluoroanilino]-7-methoxyquinazolin-5-yl}oxy)methyl]pyrrolidin-3-ol], the IC50 on EGFR tyrosine kinase came out at 1 nM; on erbB2 tyrosine kinase it was 61 nM; in assay [1], 75 nM.

For the compound `COCC(=O)N1C[C@@H](O)C[C@@H]1COc1cc(OC)cc2ncnc(Nc3ccc(F)c(Cl)c3)c12` [Example 23, (3S,5R)-5-[({4-[3-Chloro-4-fluoroanilino]-7-methoxyquinazolin-5-yl}oxy)methyl]-1-(methoxyacetyl)pyrrolidin-3-ol], the IC50 at EGFR tyrosine kinase was 56 nM; on erbB2 tyrosine kinase it was 1730 nM; in assay [1], 288 nM.

Consider `CCOCCOc1cc(OC[C@H]2CCCN2C(=O)CO)c2c(Nc3ccc(F)c(Cl)c3)ncnc2c1` [Example 18, 2-[(2R)-2-({[4-[3-Chloro-4-fluoroanilino]-7-(2-ethoxyethoxy)quinazolin-5-yl]oxy}methyl)pyrrolidin-1-yl]-2-oxoethanol], for which the IC50 was 8 nM at EGFR tyrosine kinase, 85 nM at erbB2 tyrosine kinase and 99 nM in assay [1].

Regarding `COc1cc(OC[C@@H]2C[C@H](O)CN2C(=O)CN(C)C)c2c(Nc3ccc(F)c(Cl)c3)ncnc2c1` [Example 31, (3S,5S)-5-[({4-[3-Chloro-4-fluoroanilino]-7-methoxyquinazolin-5-yl}oxy)methyl]-1-(N,N-dimethylglycyl)pyrrolidin-3-ol], the IC50 worked out at 42 nM at EGFR tyrosine kinase, 532 nM on erbB2 tyrosine kinase and 112 nM in assay [1].

In the case of `COc1cc(OC[C@@H]2CCCN2C(=O)CN(C)C)c2c(Nc3ccc(F)c(Cl)c3)ncnc2c1` [Example 2, N-(3-Chloro-4-fluorophenyl)-5-({(2S)-1-[(dimethylamino)acetyl]pyrrolidin-2-yl}methoxy)-7-methoxyquinazolin-4-amine], the results for the IC50 (at EGFR tyrosine kinase; at erbB2 tyrosine kinase; in assay [1]) were 70 nM, 1850 nM and 141 nM, respectively.

As to `COc1cc(OC[C@@H]2C[C@@H](O)CN2C(=O)CO)c2c(Nc3ccc(F)c(Cl)c3)ncnc2c1` [Example 25, (3R,5S)-5-[({4-[3-Chloro-4-fluoroanilino]-7-methoxyquinazolin-5-yl}oxy)methyl]1-glycoloylpyrrolidin-3-ol], the figures for the IC50 (on EGFR tyrosine kinase; at erbB2 tyrosine kinase; in assay [1]) were 32 nM, 1910 nM and 156 nM, respectively.

Regarding `COc1cc(OC[C@@H]2CCCN2C(=O)CN2CCCC2)c2c(Nc3ccc(F)c(Cl)c3)ncnc2c1` [Example 6, N-(3-Chloro-4-fluorophenyl)-7-methoxy-5-{[(2S)-1-(pyrrolidin-1-ylacetyl)pyrrolidin-2-yl]methoxy}quinazolin-4-amine], the IC50 on EGFR tyrosine kinase worked out at 57 nM; on erbB2 tyrosine kinase, 1630 nM; in assay [1], 130 nM.
